The text below walks through data of PubChem BioAssay (NCI).

Assay in all cases: inhibition of tumour cell growth, NCI panel, 48 h
Test [1] has as its system U251 CNS.
In test [2] the test system is HS 578T breast.
The test system of test [3] is T-47D breast.
Test [4] concerns NCI-H522 lung.
Test [5] concerns LOX IMVI melanoma.
Test [6] concerns UACC-257 melanoma.
Test [7] concerns PC-3 prostate.
Test [8] deals with UACC-62 melanoma.
Test [9] has as its system OVCAR-5 ovarian.
For test [10], the system named is OVCAR-4 ovarian.

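1) Cells in 96-well plates. 2) Compound, 48 h, 5 concentrations. 3) Linear interpolation between surrounding doses. 4) Unreached endpoint = highest concentration. At the GI50, growth is halved. Definition used: TGI = concentration required for complete inhibition of growth.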 Bounds are passed on as bounds.

On to `COc1ccc(/C=C/C(=O)C(C)(C)Br)cc1`, for which the TGI in test [1] was 28.6 µM; in [2], 37.8 µM; in test [3] it was 76.2 µM; in test [4], 2.92 µM; in test [5], 23.3 µM; in test [6] it was 30.2 µM. The results for the TGI in [7], in test [8] and in test [9] were 36.9 µM, 27.1 µM and 28.1 µM, respectively.
`O=C(O)Cn1ccnc1[N+](=O)[O-]`: the TGI in test [1], in [2], in test [3], in test [4], in test [10] and in [6] was > 100 µM throughout. In addition, the TGI in [7], in [8] and in test [9] was > 100 µM each time.
On to `CC12OC(C(=O)C13CCC3)C1C(=O)c3ccccc3C(=O)C12` (configuration not stated), for which the GI50 in test [1] was 55 µM; in test [2], > 100 µM; in test [3], 44 µM; in [4], > 100 µM; in test [6], 44 µM; in test [7], 70.7 µM. Besides, in test [9], the GI50 is > 100 µM. Further, the TGI in [1], in [2], in [3], in [4], in [6] and in test [7] was > 100 µM each time. Also, in [9], the TGI is > 100 µM.
Consider `Cn1cc(CO)c2ccccc21`, for which the GI50 was 40.3 µM in test [1]; 38.5 µM in test [2]; 62.1 µM in [3]; 23.4 µM in [4]; 56.5 µM in test [10]; > 100 µM in test [6]. Besides, the GI50 in test [7] is 85 µM; in test [8], 54.9 µM; in test [9], > 100 µM. Also, the TGI in [1], in test [2], in test [3], in test [4], in [10] and in test [6] was > 100 µM each time. Besides, the TGI in test [7], in test [8] and in test [9] was > 100 µM in each case.
As to `CCCn1cnc2c(SCc3ccccc3)nc(N)nc21`, the GI50 in test [1] is 41.4 µM; in test [2], > 100 µM; in [3] it was 56.9 µM; in test [4] it was > 100 µM; in [5], 98.9 µM; in test [6], > 100 µM. Besides, the results for the GI50 in [7], in [8] and in test [9] were 67.9 µM, > 100 µM and > 100 µM, respectively. The TGI in test [1], in test [2], in test [3], in test [4], in [5] and in test [6] was > 100 µM in each case. For the same molecule, the TGI in test [7], in test [8] and in [9] was > 100 µM each time.
Consider `COc1cc([C@H]2c3[nH]c4ccccc4c3C[C@H]3COC(=O)N32)cc(OC)c1O`, for which the TGI in test [1] was 19 µM; in test [2], 44.7 µM; in test [3], > 100 µM; in [10], > 100 µM; in [5], 20.8 µM; in [6], > 100 µM. The TGI in test [7] is > 100 µM; in test [8], 43.4 µM; in [9], > 100 µM.
Turning to `CN(C)C(=O)SC1=C(c2c(Cl)cccc2Cl)C(=O)c2ccccc21`, the GI50 is 8.33 µM in [1]; 20 µM in test [2]; 1.74 µM in [4]; 4.24 µM in [10]; 1.74 µM in [5]; 5.16 µM in test [6]. The GI50 in [7] is 7.95 µM; in [8], 3.85 µM; in test [9], 15.5 µM. The TGI in test [1] was 23 µM; in test [2], > 75.5 µM; in [4] it was 4.05 µM; in test [10] it was 10.8 µM; in test [5] it was 3.75 µM; in test [6] it was 9.81 µM. Moreover, the figures for the TGI in test [7], in test [8] and in [9] were 22.8 µM, 8.24 µM and 30.8 µM, respectively.
On to `O=C(Nc1ccc(Cl)cc1)Nc1ccccc1CNc1nc(Nc2ccc(OCCN3CCCC3)cc2)ncc1Cl`, for which the GI50 in test [2] was 7.02 µM; in test [3], 6.47 µM; in test [4], 1.18 µM; in test [10], 0.862 µM; in test [5] it was 0.901 µM; in [6] it was 0.993 µM. Besides, the GI50 was 1.07 µM in [7], 0.903 µM in test [8] and 1.1 µM in test [9]. Moreover, the TGI in test [2] was determined as 19 µM; in test [3] it was 18 µM; in [4], 2.94 µM; in test [10] it was 1.66 µM; in test [5], 1.64 µM; in test [6], 2 µM. The results for the TGI in test [7], in test [8] and in test [9] were 2.35 µM, 1.78 µM and 2.7 µM, respectively.
With `Nc1ccn([C@@H]2C(F)=C(CO)[C@@H](O)[C@H]2O)c(=O)n1`, the GI50 is 2.78 µM in test [1]; 12.3 µM in test [2]; 5.02 µM in test [3]; 0.45 µM in test [4]; 23.2 µM in test [10]; 0.453 µM in [5]. The GI50 in test [8] was 3.78 µM; in test [9], 12.2 µM. The TGI in test [1], in test [2], in [3], in [4], in test [10] and in [5] was > 100 µM each time. In addition, the TGI in test [8] and in [9] was > 100 µM in each case.
Consider `CCN(CC)CCOc1ccc(/C=C2\CC3C4CC=C5C[C@@H](OC(C)=O)CC[C@]5(C)C4CC[C@]3(C)C2=O)cc1OC` (some centres not stated), for which the GI50 in test [1] is 11.4 µM; in test [2], 7.77 µM; in [3], 38.2 µM; in test [4] it was 14.4 µM; in test [10], 20.9 µM; in test [6], 6.97 µM. Further, the GI50 in test [7] is 4.16 µM; in [8], 2.2 µM; in [9], 3.38 µM. Further, the TGI was 25.8 µM in test [1]; 25.7 µM in test [2]; > 100 µM in [3]; 33.1 µM in [4]; > 100 µM in test [10]; 31.6 µM in test [6]. In addition, the TGI in test [7] was 26.9 µM; in test [8], 4.09 µM; in [9], 12.4 µM.
